Measurements: US9447418B2, “Pro- and anti-angiogenic treatments” (UNIVERSITY OF BRISTOL, priority 2007, dated 2016)

Key:
Format in all cases: cell-based, human
[1] = system: VEGF terminal exon splice site selection; test: VEGF isoform ELISA of podocytes (PCIP) after growth factor / inhibitor treatment; settings: for increase of VEGFxxxb protein level / increase of total VEGF protein expression: 48 h
Method: (§1) Proliferating Conditionally Immortalized Podocytes (PCIPs) were derived from cell lines conditionally transformed from normal human podocytes with temperature-sensitive mutant of immortalized SV-40 (Simian Virus 40) T-antigen. At the permissive temperature of 33° C. the SV-40 T-antigen is active and allows the cells to proliferate rapidly (46). PCIPs were cultured in T75 flasks (Greiner) in RPMI-1640® cell culture medium (Sigma) with 10% FBS (Foetal Bovine Serum), 1% ITS (Insulin Transferrin Selenium) (Sigma), 0.5% PSS (Penicillin Streptomycin Solution) (Sigma) and grown to 95% confluency. Then cells were split to six well plates (1×10^4 cells per well) and grown until 95% confluent.
We investigated time- and dose-dependent effects of Insulin-like Growth Factor 1 (IGF-1), Transforming Growth Factor β1 (TGF-β1) and Platelet-Derived Growth Factor (PDGF) on production of VEGF isoforms from cultured PCIPs. Twenty-four hours before treatment cultured medium was replaced with serum free RPMI-1654 medium (Sigma) containing 1% ITS (Sigma) and 0.5% PSS (Sigma). Subsequently, the medium was replaced with fresh serum free RPMI-1654 medium (Sigma) containing 1% ITS (Sigma), 0.5% PSS (Sigma) and increasing concentrations of IGF-1 (Sigma), or TGF-β1 (Sigma) or 40 ng/mL PDGF (Sigma). The conditioned media were collected 24 or 48 hours after stimulation (IGF-1, TGF-β1) and 48 hours (PDGF).
(§2) Total VEGF concentrations in the neat RPE conditioned medium were measured using a standard DuoSet VEGF ELISA (R&D) according to manufacture's instruction. VEGFxxxb was determined with a similar sandwich ELISA, using for capture a monoclonal biotinylated mouse anti-human antibody raised against the terminal nine amino acids of VEGF165b (R&D Systems Cat No. MVRL56/1) and a standard curve for this assay built with recombinant human VEGF165b (R&D). This MVRL56/1 antibody is a commercially available affinity purified mouse monoclonal IgG1 antibody, that has been characterised previously (42, 54).

[2] = system: VEGF terminal exon splice site selection; test: Western blotting of podocyte cell lysate
Method: as §1
We investigated time- and dose-dependent effects of Insulin-like Growth Factor 1 (IGF-1), Transforming Growth Factor β1 (TGF-β1) and Platelet-Derived Growth Factor (PDGF) on production of VEGF isoforms from cultured PCIPs. Twenty-four hours before treatment cultured medium was replaced with serum free RPMI-1654 medium (Sigma) containing 1% ITS (Sigma) and 0.5% PSS (Sigma). […]
Protein samples were dissolved in Laemmli buffer, boiled for 3-4 min and centrifuged for 2 min at 20,000 g to remove insoluble materials. […] The immunoreactive bands corresponding to panVEGF and VEGFxxxb in each treatment were quantified by ImageJ analysis and normalised to those of β-tubulin.

[3] = system: VEGF terminal exon splice site selection; test: RT-PCR of podocyte mRNA for proximal (VEGFxxx) and distal (VEGFxxxb) spliced isoforms; settings: podocytes; for TGF-β1 induced VEGFxxxb expression, effect of inhibitor: FIG. 6; for TGF-β1 mediated increased intensity of the VEGFxxxb band (RT-PCR), effect of inhibitor: confirmed by Western blotting and ELISA
Method: To confirm that the changes seen by TGF-β1 were at the mRNA level, and the effect of inhibitors acted at the mRNA level, real time polymerase chain reaction (RT-PCR) was carried out using primers that detect both proximal splice isoforms (VEGFxxx, 135 bp band) and distal spliced isoforms (VEGFxxxb, 74 bp band). […] This increase in intensity was inhibited by SB203820, but not by the p42/p44MAPK inhibitor PD98059. […] These findings were confirmed by Western blotting (FIG. 5B) and ELISA (FIG. 5C).

[4] = system: VEGF terminal exon splice site selection; test: IGF-induced proximal splicing (PSS) in podocytes by RT-PCR and ELISA; settings: for IGF-induced increase in PSS, effect of inhibitor: podocytes
Source text: Treatment of podocytes with IGF increases PSS as evidenced by RT-PCR and ELISA. This increase is inhibited by the PKC inhibitor BIM and the SR protein kinase inhibitor SERPIN340 (FIGS. 12 and 13).

[5] = system: VEGF terminal exon splice site selection; test: VEGF isoform ELISA of RPE cells after agonist stimulation (IGF-1, TNF-α)
Method: Human donor eyes were obtained within 10-30 hours post-mortem from Bristol Eye Bank, Bristol, United Kingdom. Choroid-RPE sheets dissected from ocular globes were fragmented in a small amount of Dulbecco's Modification of Eagle's Medium: Ham's F12 mixture (DMEM: F12) (1:1)+GlutaMAX® supplement (Gibco) and RPE cells were isolated by digestion with 0.3 mg/ml collagenase (Gibco) for 15 min at 37° C. RPE cells were initially cultured for 5 days in the presence of 2.5% v/v foetal bovine serum (FBS) (Gibco) to prevent proliferation of fibroblasts and until the cell cultures became established. After the first passage cell culture was maintained in DMEM:F12 (1:1), supplemented with 10% v/v FBS and antibiotic/antimycotic solution (Sigma). The once passaged cells were homogeneous and contained only RPE as characterized by immunhistochemistry with anti-cytokeratin monoclonal antibody (Sigma). Cultures of RPE were routinely subcultured by trypsinisation (trypsin/EDTA, Sigma). RPE cells at passage 3-4 were plated onto 12.5 cm^2 Petri dishes (Nunc) and allowed to reach 70-80% confluency.
(§3) To determine the effects of agonists the RPE cells were cultured in freshly-replaced medium in the absence of FBS for 24 hours prior to agonist stimulation. IGF-1 (Sigma) and TNF-α (Sigma) were prepared in serum-free medium and were added in the volume of 2 ml at various concentrations, as indicated in the discussion below. No changes in cell morphology were noted on visualisation of the cells after stimulation. 24 hours later conditioned media in all experimental treatments were collected, spun down to remove debris, and placed immediately into −80° C. until the enzyme-linked immuno-sorbent assay (ELISA) was performed. The RPE cells were washed 3 times with ice-cold PBS and lysed in Laemmli buffer for Western blotting.
as §2
Due to relatively low levels of VEGFxxxb found free in the supernatant of RPE cells, for VEGFxxxb ELISA total protein in conditioned medium was precipitated with trichloroacetic acid (TCA). For this purpose 250 μl ice cold 24% TCA and 6.25 μl 2% Sodium Deoxycholate were added to 700 μl conditioned medium and left on ice for 15 min. After centrifugation at 5000×g for 10 min, pellets were collected and resuspended in lysis buffer, containing: 20 mM Tris, pH7.4, 1.5% w/v Triton X-100, 150 mM NaCl, 10% w/v glycerol and protease inhibitors cocktail (Sigma). The pH in the pelleted samples was adjusted to 7.4 with 1.5M Tris (pH8.8). The total protein content in the pellet was measured in conventional manner using bicinchoninic acid (BCA) reagent (Sigma).

[6] = system: VEGF terminal exon splice site selection; test: Western blotting of RPE cells after IGF-1
Method: as §3
Protein samples were dissolved in Laemmli buffer, boiled for 3-4 min and centrifuged for 2 min at 20,000 g to remove insoluble materials. 15 μg protein per lane were separated by Sodium Dodecyl Sulfate Polyacrylamide Gel Electrophoresis (SDS/PAGE) (12%) and transferred to 0.2 μm nitrocellulose membrane. […] Subsequently the membranes were incubated with secondary horseradish peroxidase (HRP) conjugated antibody, and immunoreactive bands were visualised using enhanced chemiluminescence (ECL) reagent (Pierce). […]

[7] = RT-PCR and ELISA (FIGS. 12 and 13)
[8] = podocytes, IGF-1, compared with control (FIG. 2B)

How did the “fall of VEGFxxx expression levels” value ([1]; podocytes, 1 nM TGF-β) turn out when “TGF-β1: Transforming Growth Factor β1 (Sigma), growth factor favouring distal splice site selection” was run?
Its value is 70±7%.

And the “increase of VEGFxxxb protein level” value ([1]; podocytes, TGF-β1 0.5 nM)?
The value was 2.9±1.4 fold.

What about the “increase of total VEGF protein expression” value ([1]; podocytes, TGF-β1 0.5 nM) of the same compound?
The value was 2.25±0.65 fold.

And the “increase of VEGFxxxb protein level” value ([1]; podocytes, TGF-β1 1 nM)?
Its value is 7.2±4.7 fold.

What about the “increase of total VEGF protein expression” value ([1]; podocytes, TGF-β1 1 nM) of the same compound?
The value was 4.63±0.61 fold.

And the “VEGF165b and VEGF121b isoforms by Western blotting” value ([2]; podocyte cell lysate, 0.5 and 1 nM TGF-β1 (FIG. 4B))?
Its value is “upregulated”.

And the “relative density of the lower, VEGFxxxb, band (RT-PCR)” value ([3]; TGF-β1 1 nM)?
Its value is “increase”.

For bisindolyl maleimide [BIM], which “IGF-induced increase in PSS, effect of inhibitor” value [4, 7] is on record?
Its value is “inhibited”.

What about the VEGF isoform favoured ([4]; summary statement) of the same compound?
Its VEGF isoform favoured is “favoured VEGF165b”.

How did the “TGF-β1 induced VEGFxxxb expression, effect of inhibitor” value [3] turn out when CCN1/C(=C/C(C)=O)Sc2ccc(OC)cc21 [TG003] was run?
Its value is “inhibited”.

And the “TGF-β1 mediated increased intensity of the VEGFxxxb band (RT-PCR), effect of inhibitor” value ([3]; TGF-β1 1 nM)?
Its value is “inhibited”.

With COc1cccc(-c2cc(=O)c3ccccc3o2)c1N [PD98059] as the compound, how does the “TGF-β1 induced VEGFxxxb expression, effect of inhibitor” value [3] read?
Its value is “not affected”.

How did the “IGF-induced increase in PSS, effect of inhibitor” value [4, 7] turn out when O=C(Nc1cc(C(F)(F)F)ccc1N1CCCCC1)c1ccncc1 [SERPIN340] was run?
Its value is “inhibited”.

Which “decrease of VEGFxxxb isoforms” value ([5]; RPE cells, 50 ng/ml TNF-α) does the source give for TNF-α here?
Its value is 46±3%.

And the “mean increase of VEGFxxx isoforms” value ([5]; RPE cells, 50 ng/ml TNF-α, n=3)?
The value was 4.5±2.0 fold.

And the VEGFxxx isoforms ([5]; RPE cells, 50 ng/ml TNF-α, n=3, untreated 182±83)?
Its VEGFxxx isoforms is 825±366 pg/mg protein.

And the VEGFxxxb isoforms ([5]; RPE cells, 50 ng/ml TNF-α, untreated 99±26)?
The VEGFxxxb isoforms was 42±13 pg/mg protein.

Which results are given for C[S+]([O-])c1ccc(-c2nc(-c3ccncc3)c(-c3ccc(F)cc3)[nH]2)cc1 (stereo not shown) [SB203580, reference compound]?
TGF-β effect on expression of VEGFxxxb or VEGFxxx isoforms in presence of inhibitor ([1]; podocytes (FIG. 5B)): did not increase expression; expression of VEGFxxx isoforms ([1]; podocytes treated with SB203580, below the detection limit): did not increase; VEGF165b expression ([1]; podocytes treated with SB203580, untreated 850±50 pg/mg protein (FIG. 5A)): 450 ± 80 pg/mg; TGF-β1 upregulation of VEGF165b by Western blotting, effect of inhibitor ([2]; podocytes (FIG. 5C)): inhibited; TGF-β1 mediated increased intensity of the VEGFxxxb band (RT-PCR), effect of inhibitor ([3]; TGF-β1 1 nM): inhibited

Which “share of VEGF produced as VEGFxxxb” value ([5]; RPE cells after IGF-1 treatment, originally 80±32%) does the source give for “IGF-1: Insulin-like Growth Factor 1 (Sigma), growth factor favouring proximal splice site selection” here?
The value was 5±20%.

What about the VEGFtotal ([5]; RPE cells, 100 nM IGF-1, N=6, untreated 217±112) of the same compound?
Its VEGFtotal is 1656±448 pg/mg protein.

What about the VEGFxxxb ([5]; RPE cells, 100 nM IGF-1, untreated 78±12) of the same compound?
Its VEGFxxxb is 64±14 pg/mg protein.

And the VEGFxxx ([5]; RPE cells, 100 nM IGF-1, untreated 138±117)?
The VEGFxxx was 1592 pg/mg protein.

What about the “VEGF165b by Western blotting” value ([6]; 100 nM IGF (FIG. 3A)) of the same compound?
The value was “downregulated”.

What about the “total VEGF relative to loading control by Western blotting” value ([6]; 100 nM IGF, β-actin loading control (FIG. 3B)) of the same compound?
Its value is “increase”.

What about the VEGF165b levels [1, 8] of the same compound?
Its VEGF165b levels is “decrease”.

What about the “total VEGF levels” value [1, 8] of the same compound?
The value was “significant increase”.

And the “proximal splice site selection (PSS)” value ([4]; podocytes treated with IGF, RT-PCR and ELISA (FIGS. 12 and 13))?
Its value is “increases”.
